How the values were obtained:
Assay type in all cases: cell-based
[1] = tested on: Monographella nivalis (Microdochium nivale); experiment: Monographella nivalis (Microdochium nivale) / liquid culture (foot rot cereals); details: 96 h, 200 ppm in the formulation, inhibition of growth determined photometrically 4-5 days after application, compared to untreated control, read-out: disease control
Procedure: (§1) Monographella nivalis (Microdochium nivale)/Liquid Culture (Foot Rot Cereals) Conidia of the fungus from cryogenic storage are directly mixed into nutrient broth (PDB potato dextrose broth). After placing a (DMSO) solution of test compound into a microtiter plate (96-well format), the nutrient broth containing the fungal spores is added. The test plates are incubated at 24° C. and the inhibition of growth is determined photometrically 4-5 days after application.

[2] = tested on: Glomerella lagenarium (Colletotrichum lagenarium); experiment: Glomerella lagenarium (Colletotrichum lagenarium) / liquid culture (anthracnose); details: Colletotrichum orbiculare, 72 h, 200 ppm in the formulation, inhibition of growth measured photometrically 3 to 4 days after application, compared to untreated control, read-out: disease control
Procedure: as §1, with “Glomerella lagenarium (Colletotrichum lagenarium)/Liquid” for “Monographella nivalis (Microdochium nivale)/Liquid”, “(Anthracnose)” for “(Foot Rot Cereals)”, “measured” for “determined”, “3 to 4” for “4-5”

[3] = tested on: Mycosphaerella graminicola (Septoria tritici); experiment: Mycosphaerella graminicola (Septoria tritici) / liquid culture (Septoria blotch); details: Zymoseptoria tritici, 96 h, 200 ppm in the formulation, inhibition of growth determined photometrically 4 to 5 days after application, compared to untreated control, read-out: disease control
Procedure: as §1, with “Mycosphaerella graminicola (Septoria tritici)/Liquid” for “Monographella nivalis (Microdochium nivale)/Liquid”, “(Septoria Blotch)” for “(Foot Rot Cereals)”, “4 to 5” for “4-5”

[4] = tested on: Mycosphaerella arachidis (Cercospora arachidicola); experiment: Mycosphaerella arachidis (Cercospora arachidicola) / liquid culture (early leaf spot); details: 96 h, 200 ppm in the formulation, inhibition of growth determined photometrically 4-5 days after application, compared to untreated control, read-out: disease control
Procedure: as §1, with “Mycosphaerella arachidis (Cercospora arachidicola)/Liquid” for “Monographella nivalis (Microdochium nivale)/Liquid”, “(Early Leaf Spot)” for “(Foot Rot Cereals)”

[5] = tested on: Botryotinia fuckeliana (Botrytis cinerea); experiment: Botryotinia fuckeliana (Botrytis cinerea) / liquid culture (gray mould); details: 72 h, 200 ppm in the formulation, inhibition of growth determined photometrically 3-4 days after application, compared to untreated control, read-out: disease control
Procedure: as §1, with “Botryotinia fuckeliana (Botrytis cinerea)/Liquid” for “Monographella nivalis (Microdochium nivale)/Liquid”, “(Gray Mould)” for “(Foot Rot Cereals)”, “(Vogels” for “(PDB potato dextrose”, “3-4” for “4-5”

Measured: inhibition of growth at 200 ppm

COc1ccnc(C(=O)N[C@@H](C)C(=O)OC2CCC2(C)c2ccc(F)cc2)c1O (stereo partly drawn) [I.ad.02, [2-(4-fluoro phenyl)-2-methyl-cyclobutyl] (2S)-2-[(3-hydroxy-4-methoxy-pyridine-2-carbonyl)amino]propanoate]
≥ 80%: [1] | [2] | [3]

CCC1(c2ccc(F)cc2)CCC1OC(=O)[C@H](C)NC(=O)c1nccc(OC)c1O (stereo partly drawn) [I.ag.02, [2-ethyl-2-(4-fluorophenyl)cyclo-butyl] (2S)-2-[(3-hydroxy-4-methoxy-pyridine-2-carbonyl)amino]propanoate]
not listed: [5]
≥ 80%: all other assays above

COc1ccnc(C(=O)N[C@@H](C)C(=O)OC2CC2c2ccc(C(C)(C)C)cc2)c1O (stereo partly drawn) [I.ap.01, [2-(4-tert-butylphenyl)cyclopropyl] (2S)-2-[(3-hydroxy-4-methoxy-pyridine-2-carbonyl)amino]propanoate]
≥ 80%: all assays above

CCCc1ccc(C2CC2OC(=O)[C@H](C)NC(=O)c2nccc(OC)c2O)cc1 (stereo partly drawn) [I.aq.01, [2-(4-propylphenyl)cyclopropyl] (2S)-2-[(3-hydroxy-4-methoxy-pyridine-2-carbonyl)amino]propanoate]
≥ 80%: all assays above

COc1ccnc(C(=O)N[C@@H](C)C(=O)OC2CCC2(c2ccc(F)cc2)C2CC2)c1O (stereo partly drawn) [I.ar.02, [2-cyclopropyl-2-(4-fluorophenyl)cyclobutyl] (2S)-2-[(3-hydroxy-4-methoxy-pyridine-2-carbonyl)amino]propanoate]
≥ 80%: all assays above

COc1ccnc(C(=O)N[C@@H](C)C(=O)OC2CCC2(c2ccc(Cl)cc2)C2CC2)c1O (stereo partly drawn) [I.as.02, [2-(4-chlorophenyl)-2-cyclopropyl-cyclobutyl] (2S)-2-[(3-hydroxy-4-methoxy-pyridine-2-carbonyl)amino]propanoate]
≥ 80%: all assays above

COc1ccnc(C(=O)N[C@@H](C)C(=O)OC2CCC2(CC(C)C)c2ccc(F)cc2)c1O (stereo partly drawn) [I.at.02, [2-(4-fluorophenyl)-2-isobutyl-cyclobutyl] (2S)-2-[(3-hydroxy-4-methoxy-pyridine-2-carbonyl)amino]propanoate]
not listed: [5]
≥ 80%: all other assays above

COc1ccnc(C(=O)N[C@@H](C)C(=O)OC2CCC2(Cc2ccccc2)c2ccc(F)cc2)c1O (some centres unmarked) [I.au02]
≥ 80%: all assays above

COc1ccnc(C(=O)N[C@@H](C)C(=O)OC2CCC2c2ccc(F)cc2)c1O (stereo partly drawn) [I.e.02, [2-(4-fluorophenyl)cyclobutyl] (2S)-2-[(3-hydroxy-4-methoxy-pyridine-2-carbonyl)amino]propanoate]
≥ 80%: all assays above

COc1ccnc(C(=O)N[C@@H](C)C(=O)OC2CCC2c2ccc(Cl)cc2)c1O (stereo partly drawn) [I.f.02, [2-(4-chlorophenyl)cyclobutyl] (2S)-2-[(3-hydroxy-4-methoxy-pyridine-2-carbonyl)amino]propanoate]
≥ 80%: all assays above

COc1ccnc(C(=O)N[C@@H](C)C(=O)OC2CCC2c2ccc(F)cc2F)c1O (stereo partly drawn) [I.h.02, [2-(2,4-difluorophenyl)cyclobutyl] (2S)-2-[(3-hydroxy-4-methoxy-pyridine-2-carbonyl)amino]propanoate]
≥ 80%: all assays above

COc1ccnc(C(=O)N[C@@H](C)C(=O)OC2CCC2c2ccc(Cl)cc2Cl)c1O (stereo partly drawn) [I.i.02, [2-(2,4-dichlorophenyl)cyclobutyl] (2S)-2-[(3-hydroxy-4-methoxy-pyridine-2-carbonyl)amino]propanoate]
≥ 80%: all assays above

COc1ccnc(C(=O)N[C@@H](C)C(=O)OC2CCC2(c2ccccc2)c2ccccc2)c1O (stereo partly drawn) [I.k.02, (2,2-diphenyl cyclobutyl) (2S)-2-[(3-hydroxy-4-methoxy-pyridine-2-carbonyl)amino]propanoate]
≥ 80%: all assays above

COc1ccnc(C(=O)N[C@@H](C)C(=O)OC2CCC2(c2cccc(C)c2)c2cccc(C)c2)c1O (stereo partly drawn) [I.s.02, [2,2-bis(m-tolyl)cyclobutyl] (2S)-2-[(3-hydroxy-4-methoxy-pyridine-2-carbonyl)amino]propanoate]
not listed: [5]
≥ 80%: all other assays above

COc1ccnc(C(=O)N[C@@H](C)C(=O)OC2CCC2(c2ccc(F)cc2)c2ccc(F)cc2)c1O (stereo partly drawn) [I.u.02, [2,2-bis(4-fluorophenyl)cyclobutyl] (2S)-2-[(3-hydroxy-4-methoxy-pyridine-2-carbonyl)amino]propanoate]
≥ 80%: all assays above

COc1ccnc(C(=O)N[C@@H](C)C(=O)OC2CCC2(c2ccc(F)cc2)c2ccc(F)cc2)c1OC(C)=O (stereo partly drawn) [I.u.14, [2,2-bis(4-fluorophenyl)cyclobutyl] (2S)-2-[(3-acetoxy-4-methoxy-pyridine-2-carbonyl)amino]propanoate]
≥ 80%: all assays above

COc1ccnc(C(=O)N[C@@H](C)C(=O)OC2CCC2(c2ccc(Cl)cc2)c2ccc(Cl)cc2)c1O (stereo partly drawn) [I.v.02, [2,2-bis(4-chlorophenyl)cyclobutyl] (2S)-2-[(3-hydroxy-4-methoxy-pyridine-2-carbonyl)amino]propanoate]
not listed: [5]
≥ 80%: all other assays above

COc1ccnc(C(=O)N[C@@H](C)C(=O)OC2CCC2(c2ccc(C)cc2)c2ccc(C)cc2)c1O (stereo partly drawn) [I.w.02, [2,2-bis(p-tolyl)cyclobutyl](2S)-2-[(3-hydroxy-4-methoxy-pyridine-2-carbonyl)amino]propanoate]
not listed: [5]
≥ 80%: all other assays above

Reference: patent US11291205B2, “Microbiocidal picolinamide derivatives” (Syngenta Participations AG, priority 2017, dated 2022)
